Experimental data from patent publication US20230114728A1 (Venatorx Pharmaceuticals, Inc., priority 2019, published 2023).
Values after ≈ are worked out from the molar mass of the structure shown.

Legend:
P. aeruginosa PBP3 = molecular target: T1, P. aeruginosa PBP3 (Pseudomonas aeruginosa, UniProt G3XD46); experiment: Bocillin-FL fluorescence polarization competition binding assay, P. aeruginosa PBP3; settings: fluorescence polarization competition binding assay using Bocillin-FL
T1 construct: made in house
In short: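 Inhibitor competition with Bocillin-FL for P. aeruginosa PBP3 was followed by fluorescence polarization on a Cytation3 (BioTek) reader, using g-factor 0.96, 490 nm excitation and 520 nm emission. The enzyme was at 0.75 μM and the probe at 0.1 μM in Hepes/NaCl/glycerol buffer, 80 μl per well. FP was recorded immediately after probe addition for up to 60 minutes. Potency was expressed as EC50, the concentration that reduces bound probe by 50%.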

E. coli AG100 = experiment: Broth microdilution MIC in CAMHB; assay type: cell-based; settings: Escherichia coli; E. coli AG100 (wild-type parent); MHB; read-out: Minimum Inhibitory Concentration, E. coli AG100
In short: (§1)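 Lowest compound concentration with no visible growth after 16-20 h at 37 °C defines MIC. Plates of 2-fold serial dilutions in cation-adjusted Mueller Hinton broth received 2-8×10^5 CFU/mL of exponentially grown cells, per CLSI methods; panel spans reference, hyper-permeable and efflux-pump-deleted strains.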

[1] = system: K. pneumoniae 848844 producing SHV-11 and KPC-2; experiment: Broth microdilution MIC in CAMHB; assay type: cell-based; settings: Klebsiella pneumoniae, read-out: Minimum Inhibitory Concentration, K. pneumoniae 848844
In short: as §1

E. coli AG100A = experiment: Broth microdilution MIC in CAMHB; assay type: cell-based; settings: Escherichia coli, read-out: Minimum Inhibitory Concentration, E. coli AG100A
In short: as §1

[2] = system: K. pneumoniae UMM producing SHV-5 and KPC-2; experiment: Broth microdilution MIC in CAMHB; assay type: cell-based; settings: Klebsiella pneumoniae, read-out: Minimum Inhibitory Concentration, K. pneumoniae UMM
In short: as §1

E. coli 901C = experiment: Broth microdilution MIC in CAMHB; assay type: cell-based; settings: Escherichia coli; E. coli 901C (hyper-permeable); MHB; read-out: Minimum Inhibitory Concentration, E. coli 901C
In short: as §1

T1 sequence (G3XD46 whole entry): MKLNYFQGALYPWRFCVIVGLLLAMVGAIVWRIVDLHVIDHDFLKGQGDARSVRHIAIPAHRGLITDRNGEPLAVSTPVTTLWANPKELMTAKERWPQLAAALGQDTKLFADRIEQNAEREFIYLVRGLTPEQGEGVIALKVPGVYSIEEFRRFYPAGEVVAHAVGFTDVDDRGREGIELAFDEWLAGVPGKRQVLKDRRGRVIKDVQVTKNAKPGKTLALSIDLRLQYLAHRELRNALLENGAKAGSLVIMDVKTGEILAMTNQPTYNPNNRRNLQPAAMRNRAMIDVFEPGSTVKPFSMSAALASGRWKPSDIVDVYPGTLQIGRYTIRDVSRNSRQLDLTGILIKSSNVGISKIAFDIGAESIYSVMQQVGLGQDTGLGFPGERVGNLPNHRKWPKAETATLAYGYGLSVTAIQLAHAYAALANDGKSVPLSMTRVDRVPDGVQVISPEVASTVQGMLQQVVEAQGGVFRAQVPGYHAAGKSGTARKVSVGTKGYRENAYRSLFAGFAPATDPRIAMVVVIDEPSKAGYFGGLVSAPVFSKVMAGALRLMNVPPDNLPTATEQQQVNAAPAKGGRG

Row | Structure (SMILES) | P. aeruginosa PBP3 Potency (P. aeruginosa PBP3) | other results
1 | NCCN1CCN(C(=O)N[C@@H](C(=O)N[C@H]2Cc3ccc(F)c(C(=O)O)c3OB2O)c2c(F)cc(O)c(O)c2Cl)C(=O)C1=O (single isomer, unassigned) [Example 26] | D (D represents a potency <10 μM) | 
2 | NCCCN1CCN(C(=O)N[C@@H](C(=O)N[C@H]2Cc3ccc(F)c(C(=O)O)c3OB2O)c2c(F)cc(O)c(O)c2Cl)C(=O)C1=O (single isomer, unassigned) [Example 27] | D (D represents a potency <10 μM) | 
3 | NCCCN1CCN(C(=O)N[C@H](C(=O)N[C@H]2Cc3ccc(F)c(C(=O)O)c3OB2O)c2ccc(O)c(O)c2Cl)C(=O)C1=O (single isomer, unassigned) [Example 28] | B (B represents a potency between 30 μM and 500 μM inclusive) | 
4 | O=C(O)c1c(F)ccc2c1OB(O)[C@@H](NC(=O)[C@H](NC(=O)N1CCNC1=O)c1c(F)cc(O)c(O)c1Cl)C2 (single isomer, unassigned) [Example 34] | D (D represents a potency <10 μM) | 
5 | CS(=O)(=O)N1CCN(C(=O)N[C@@H](C(=O)N[C@H]2Cc3ccc(F)c(C(=O)O)c3OB2O)c2c(F)cc(O)c(O)c2Cl)C1=O (single isomer, unassigned) [Example 35] | D (D represents a potency <10 μM) | 
6 | NCCN1CCN(C(=O)N[C@@H](C(=O)N[C@H]2Cc3ccc(F)c(C(=O)O)c3OB2O)c2c(F)cc(O)c(O)c2F)C(=O)C1=O (single isomer, unassigned) [Example 40] | D (D represents a potency <10 μM) | 
7 | NCCCN1CCN(C(=O)N[C@@H](C(=O)N[C@H]2Cc3ccc(F)c(C(=O)O)c3OB2O)c2c(F)cc(O)c(O)c2F)C(=O)C1=O (single isomer, unassigned) [Example 41] | D (D represents a potency <10 μM) | 
8 | O=C(O)c1ccc(C(NC(=O)c2ccc(O)c(O)c2Cl)C(=O)N[C@H]2Cc3cccc(C(=O)O)c3OB2O)cc1F (stereo partly drawn) [Example 7, (3R)-3-(2-(4-carboxy-3-fluorophenyl)-2-(2-chloro-3,4-dihydroxybenzamido)acetamido)-2-hydroxy-3,4-dihydro-2H-benzo[e][1,2]oxaborinine-8-carboxylic acid] | D (D represents a potency <10 μM) | 
9 | O=C(NC(C(=O)N[C@H]1Cc2ccc(F)c(C(=O)O)c2OB1O)c1ncc(O)cc1F)c1ccc(O)c(O)c1Cl (stereo partly drawn) [Example 8, (3R)-3-(2-(2-chloro-3,4-dihydroxybenzamido)-2-(3-fluoro-5-hydroxypyridin-2-yl)acetamido)-7-fluoro-2-hydroxy-3,4-dihydro-2H-benzo[e][1,2]oxaborinine-8-carboxylic acid] | D (D represents a potency <10 μM) | 
10 | O=C(Nc1ccc(O)c(O)c1Cl)NC(C(=O)N[C@H]1Cc2ccc(F)c(C(=O)O)c2OB1O)c1ncc(O)cc1F (stereo partly drawn) [Example 9, (3R)-3-(2-(3-(2-chloro-3,4-dihydroxyphenyl)ureido)-2-(3-fluoro-5-hydroxypyridin-2-yl)acetamido)-7-fluoro-2-hydroxy-3,4-dihydro-2H-benzo[e][1,2]oxaborinine-8-carboxylic acid] | D (D represents a potency <10 μM) | 
11 | O=C(NC(C(=O)N[C@H]1Cc2ccc(F)c(C(=O)O)c2OB1O)c1ncc(O)cc1F)c1c(F)cc(O)c(O)c1Cl (stereo partly drawn) [Example 10, (3R)-3-(2-(2-chloro-6-fluoro-3,4-dihydroxybenzamido)-2-(3-fluoro-5-hydroxypyridin-2-yl)acetamido)-7-fluoro-2-hydroxy-3,4-dihydro-2H-benzo[e][1,2]oxaborinine-8-carboxylic acid] | D (D represents a potency <10 μM) | 
12 | O=C(O)c1ccc(C(NC(=O)N2CCN(CCNC(=O)c3ccc(O)c(O)c3Cl)C(=O)C2=O)C(=O)N[C@H]2Cc3ccc(F)c(C(=O)O)c3OB2O)cc1F (stereo partly drawn) [Example 11, (3R)-3-(2-(4-carboxy-3-fluorophenyl)-2-(4-(2-(2-chloro-3,4-dihydroxybenzamido)ethyl)-2,3-dioxopiperazine-1-carboxamido)acetamido)-7-fluoro-2-hydroxy-3,4-dihydro-2H-benzo[e][1,2]oxaborinine-8-carboxylic acid] |  | MIC (E. coli AG100): 32 to 64 µg/mL (≈ 41.4 to 82.7 µM); MIC [1]: > 128 µg/mL; MIC (E. coli AG100A): 2 to 4 µg/mL (≈ 2.58 to 5.17 µM); MIC [2]: 2 to 4 µg/mL (≈ 2.58 to 5.17 µM); MIC (E. coli 901C): 0.5 to 1 µg/mL (≈ 0.646 to 1.29 µM)
13 | CS(=O)(=O)N1CCN(C(=O)NC(C(=O)N[C@H]2Cc3ccc(F)c(C(=O)O)c3OB2O)c2ccc(O)c(O)c2Cl)C1=O (stereo partly drawn) [Example 23, (3R)-3-(2-(2-chloro-3,4-dihydroxyphenyl)-2-(3-(methylsulfonyl)-2-oxoimidazolidine-1-carboxamido)acetamido)-7-fluoro-2-hydroxy-3,4-dihydro-2H-benzo[e][1,2]oxaborinine-8-carboxylic acid] | D (D represents a potency <10 μM) | 
14 | NC(C(=O)N[C@H]1Cc2ccc(F)c(C(=O)O)c2OB1O)c1c(F)cc(O)c(O)c1Cl (stereo partly drawn) [Example 25, (3R)-3-(2-amino-2-(2-chloro-6-fluoro-3,4-dihydroxyphenyl)acetamido)-7-fluoro-2-hydroxy-3,4-dihydro-2H-benzo[e][1,2]oxaborinine-8-carboxylic acid] | B (B represents a potency between 30 μM and 500 μM inclusive) | 
15 | CCN1CCN(C(=O)NC(C(=O)N[C@H]2Cc3ccc(F)c(C(=O)O)c3OB2O)c2c(F)cc(O)c(O)c2F)C(=O)C1=O (stereo partly drawn) [Example 36, (3R)-3-(2-(2,6-difluoro-3,4-dihydroxyphenyl)-2-(4-ethyl-2,3-dioxopiperazine-1-carboxamido)acetamido)-7-fluoro-2-hydroxy-3,4-dihydro-2H-benzo[e][1,2]oxaborinine-8-carboxylic acid] | D (D represents a potency <10 μM) | 
16 | O=C(O)c1c(F)ccc2c1OB(O)[C@@H](NC(=O)C(NC(=O)N1CCN(CCF)C(=O)C1=O)c1c(F)cc(O)c(O)c1F)C2 (stereo partly drawn) [Example 37, (3R)-3-(2-(2,6-difluoro-3,4-dihydroxyphenyl)-2-(4-(2-fluoroethyl)-2,3-dioxopiperazine-1-carboxamido)acetamido)-7-fluoro-2-hydroxy-3,4-dihydro-2H-benzo[e][1,2]oxaborinine-8-carboxylic acid] | D (D represents a potency <10 μM) | 
17 | CCN1CCN(C(=O)NC(C(=O)N[C@H]2Cc3ccc(F)c(C(=O)O)c3OB2O)c2cc(F)c(O)c(O)c2Cl)C(=O)C1=O (stereo partly drawn) [Example 42, (3R)-3-(2-(2-chloro-5-fluoro-3,4-dihydroxyphenyl)-2-(4-ethyl-2,3-dioxopiperazine-1-carboxamido)acetamido)-7-fluoro-2-hydroxy-3,4-dihydro-2H-benzo[e][1,2]oxaborinine-8-carboxylic acid] | D (D represents a potency <10 μM) | 
18 | O=C(NC(C(=O)N[C@H]1Cc2ccc(F)c(C(=O)O)c2OB1O)c1ncc(O)cc1F)c1ccnc(F)c1 (stereo partly drawn) [Example 53, (3R)-7-fluoro-3-(2-(3-fluoro-5-hydroxypyridin-2-yl)-2-(2-fluoroisonicotinamido)acetamido)-2-hydroxy-3,4-dihydro-2H-benzo[e][1,2]oxaborinine-8-carboxylic acid] | D (D represents a potency <10 μM) | MIC (E. coli AG100): > 128 µg/mL; MIC [1]: > 128 µg/mL; MIC (E. coli AG100A): > 128 µg/mL; MIC [2]: > 128 µg/mL; MIC (E. coli 901C): 8 to 16 µg/mL (≈ 15.5 to 31 µM)
19 | O=C(O)c1ccc(C(NC(=O)c2c(F)cc(O)c(O)c2Cl)C(=O)N[C@H]2Cc3ccc(F)c(C(=O)O)c3OB2O)cc1F (stereo partly drawn) [Example 71, (3R)-3-(2-(4-carboxy-3-fluorophenyl)-2-(2-chloro-6-fluoro-3,4-dihydroxybenzamido)acetamido)-7-fluoro-2-hydroxy-3,4-dihydro-2H-benzo[e][1,2]oxaborinine-8-carboxylic acid] | D (D represents a potency <10 μM) | 
20 | CC(C)(C)[C@@H](NC(=O)N1CCN(CCNC(=O)c2c(F)cc(O)c(O)c2Cl)C(=O)C1=O)C(=O)N[C@H]1Cc2ccc(F)c(C(=O)O)c2OB1O [Example 80, (R)-3-((R)-2-(4-(2-(2-chloro-6-fluoro-3,4-dihydroxybenzamido)ethyl)-2,3-dioxopiperazine-1-carboxamido)-3,3-dimethylbutanamido)-7-fluoro-2-hydroxy-3,4-dihydro-2H-benzo[e][1,2]oxaborinine-8-carboxylic acid] | D (D represents a potency <10 μM) | 
